Measured values: ChEMBL document CHEMBL1135216, “New 2-(1-adamantylcarbonyl)pyridine and 1-acetyladamantane thiosemicarbazones-thiocarbonohydrazones: cell growth inhibitory, antiviral and antimicrobial activity evaluation” (Bioorg Med Chem Lett, 2002)
Values after ≈ are worked out from the molar mass of the structure shown.

Tests used:
[1] = test system: CCRF-CEM; experiment: Tested for the inhibitory concentration against cell growth of human leukemic cell line CCRF-CEM; assay type: functional
[2] = test system: CCRF-CEM; experiment: Tested for the concentration required to reduce the viability of leukemia cells by 50% against cell growth of T cell leukemia cell line CCRF-CEM using MTT assay; assay type: functional; settings: Homo sapiens, read-out: LC50 (the source's name)
[3] = test system: CCRF-CEM; experiment: Tested for the inhibitory concentration against cell growth of Tcell leukemic cell line CCRF-CEM using MTT assay; assay type: functional; settings: Homo sapiens
[4] = test system: E6SM; experiment: Tested for antiviral activity against VSV-virus in human embryonic skin muscle fibroblasts; assay type: functional; settings: Muscle tissue
[5] = test system: E6SM; experiment: Tested for antiviral activity against herpes simplex virus type 1(KOS) in E6SM cell line(human embryonic skin-muscle fibroblasts); assay type: functional
[6] = test system: E6SM; experiment: Tested for antiviral activity against thymidine kinase-deficient (TK-HSV-2G) virus in E6SM cell line(human embryonic skin-muscle fibroblasts); assay type: functional
[7] = test system: E6SM; experiment: Tested for antiviral activity against vaccinia virus in human embryonic skin muscle fibroblast; assay type: functional; settings: Muscle tissue
[8] = test system: HeLa; experiment: The compound was tested for antiviral activity against VSV-virus in human epithelial cells; assay type: functional
[9] = test system: E6SM; experiment: The compound was tested for antiviral activity against thymidine kinase-deficient (TK-HSV-1)virus in E6SM cell line(human embryonic skin-muscle fibroblasts); assay type: functional
[10] = test system: E6SM; experiment: Tested for cytotoxic activity in human embryonic skin muscle fibroblast (E6SM); assay type: functional; settings: Muscle tissue
[11] = test system: Escherichia coli; experiment: Tested for the antimicrobial activity against Escherichia coli ATCC 25922; assay type: functional
[12] = test system: HEL; experiment: Tested for cytotoxic activity in human embryonic lung fibroblast (HEL); assay type: functional
[13] = test system: HEL; experiment: Tested for antiviral activity against human cytomegalovirus (AD-169) in human embryonic lung fibroblasts; assay type: functional
[14] = test system: HEL; experiment: Tested for antiviral activity against thymidine kinase deficient Varicella zoster virus in human embryonic lung fibroblasts; assay type: functional
[15] = test system: HEL; experiment: Tested for antiviral activity against thymidine kinase wild type Varicella zoster virus in human embryonic lung fibroblast; assay type: functional
[16] = test system: HeLa; experiment: Tested for antiviral activity against coxsackie-B4 virus in human epithelial cell line; assay type: functional
[17] = test system: HL-60; experiment: Tested for the inhibitory concentration against cell growth of human leukemic cell line HL60; assay type: functional
[18] = test system: HL-60; experiment: Tested for the concentration required to reduce the viability of leukemia cells by 50% against cell growth of HL60 acute myeloid leukemia using MTT assay; assay type: functional; settings: Homo sapiens, read-out: LC50 (the source's name)
[19] = test system: HL-60; experiment: Tested for the inhibitory concentration against cell growth of HL60 acute myeloid leukemia using MTT assay; assay type: functional; settings: Homo sapiens
[20] = test system: HeLa; experiment: Tested for cytotoxic activity in human epithelial cell line (HeLa); assay type: functional
[21] = test system: HuT78; experiment: Tested for the inhibitory concentration against cell growth of human leukemic cell line HuT78; assay type: functional
[22] = test system: HuT78; experiment: Tested for the concentration required to reduce the viability of leukemia cells by 50% against cell growth of HuT78 T lymphoma using MTT assay; assay type: functional; settings: Homo sapiens, read-out: LC50 (the source's name)
[23] = test system: HuT78; experiment: Tested for the inhibitory concentration against cell growth of HuT78 T lymphoma using MTT assay; assay type: functional; settings: Homo sapiens
[24] = test system: K562; experiment: Tested for the concentration required to reduce the viability of leukemia cells by 50% against cell growth of K562 chronic myeloid leukemia using MTT assay; assay type: functional; settings: Homo sapiens, read-out: LC50 (the source's name)
[25] = test system: K562; experiment: Tested for the inhibitory concentration against cell growth of K562 chronic myeloid leukemia using MTT assay; assay type: functional; settings: Homo sapiens
[26] = test system: K562; experiment: Tested for the inhibitory concentration against cell growth of human leukemic cell line K562; assay type: functional
[27] = test system: Klebsiella pneumoniae; experiment: Tested for the antimicrobial activity against Klebsiella pneumoniae ATCC 13883; assay type: functional
[28] = test system: MOLT-4; experiment: Tested for the inhibitory concentration against cell growth of human leukemic cell line MOLT-4; assay type: functional
[29] = test system: MT4; experiment: Tested for effective concentration required to protect MT-4 cells against the cytopathicity of HIV-1(IIIB); assay type: functional; settings: Homo sapiens, read-out: LC50 (the source's name)
[30] = test system: MT4; experiment: Tested for effective concentration required to protect MT-4 cells against the cytopathicity of HIV-2(ROD); assay type: functional; settings: Homo sapiens, read-out: LC50 (the source's name)
[31] = test system: MOLT-4; experiment: Tested for the concentration required to reduce the viability of leukemia cells by 50% against cell growth of T cell leukemia cell line MOLT-4 using MTT assay; assay type: functional; settings: Homo sapiens, read-out: LC50 (the source's name)
[32] = test system: MOLT-4; experiment: Tested for the inhibitory concentration against cell growth of Tcell leukemic cell line MOLT-4 using MTT assay; assay type: functional; settings: Homo sapiens
[33] = test system: RPMI-8226; experiment: Tested for the inhibitory concentration against cell growth of human leukemic cell line RPMI8226; assay type: functional
[34] = test system: RPMI-8226; experiment: Tested for the concentration required to reduce the viability of leukemia cells by 50% against cell growth of RPMI8226 multiple myeloma using MTT assay; assay type: functional; settings: Homo sapiens, read-out: LC50 (the source's name)
[35] = test system: RPMI-8226; experiment: Tested for the inhibitory concentration against cell growth of […] multiple myeloma using MTT assay; assay type: functional; settings: Homo sapiens
[36] = test system: Staphylococcus aureus; experiment: Tested for the antimicrobial activity against Staphylococcus aureus ATCC 6538; assay type: functional
[37] = test system: Staphylococcus epidermidis; experiment: Tested for the antimicrobial activity against Staphylococcus epidermidis ATCC 12228; assay type: functional
[38] = test system: Staphylococcus hominis; experiment: Tested for the antimicrobial activity against Staphylococcus hominis ATCC 27844; assay type: functional
[39] = test system: Vero; experiment: Tested for cytotoxic activity in African green monkey kidney cells (Vero); assay type: functional; settings: Chlorocebus sabaeus
[40] = test system: Vero; experiment: Tested for antiviral activity against Punta toro virus in African green monkey kidney cell (Vero); assay type: functional; settings: Chlorocebus sabaeus
[41] = test system: Vero; experiment: Tested for antiviral activity against Reo-1 virus in African green monkey kidney cell (Vero); assay type: functional; settings: Chlorocebus sabaeus
[42] = test system: Vero; experiment: Tested for antiviral activity against Sindbis virus in African green monkey kidney cell (Vero); assay type: functional; settings: Chlorocebus sabaeus
[43] = test system: Vero; experiment: Tested for antiviral activity against coxsackie B-4 virus in African green monkey kidney cell (Vero); assay type: functional; settings: Chlorocebus sabaeus
[44] = test system: Vero; experiment: Tested for antiviral activity against parainfluenza virus in african green monkey kidney cell (Vero); assay type: functional; settings: Chlorocebus sabaeus
[45] = test system: MT4; experiment: Tested for cytotoxic concentration required to reduce the viability of MT-4 cells by 50%; assay type: functional, cell-based; settings: Homo sapiens, read-out: EC50 (the source's name)

Which results are given for `C/C(=N/N=C(/S)N/N=C(\S)c1ccc(Cl)cc1)C12CC3CC(CC(C3)C1)C2`?
GI50 [1]: 100 µM; CC50 [2]: 100 µM; TGI [3]: 100 µM; MIC [4]: > 40 µg/mL; MIC [5]: > 40 µg/mL; MIC [6]: > 40 µg/mL; MIC [7]: > 5 µg/mL; MIC [8]: > 40 µg/mL; MIC [9]: > 40 µg/mL; MCC [10]: 200 µg/mL; MIC [11]: > 2300 µg/mL; MCC [12]: > 5 µg/mL; MIC [13]: > 2 µg/mL; MIC [14]: > 2 µg/mL; MIC [15]: > 2 µg/mL; MIC [16]: > 40 µg/mL; GI50 [17]: 100 µM; CC50 [18]: 100 µM; TGI [19]: 100 µM; MCC [20]: > 200 µg/mL; GI50 [21]: 100 µM; CC50 [22]: 100 µM; TGI [23]: 100 µM; CC50 [24]: 100 µM; TGI [25]: 100 µM; GI50 [26]: 100 µM; MIC [27]: > 2300 µg/mL; GI50 [28]: 100 µM; EC50 [29]: > 10 µM; CC50 [30]: > 10 µM; CC50 [31]: 100 µM; TGI [32]: 100 µM; GI50 [33]: 100 µM; CC50 [34]: 100 µM; TGI [35]: 100 µM; MIC [36]: 1150 µg/mL (≈ 2730 µM); MIC [37]: 1150 µg/mL (≈ 2730 µM); MIC [38]: 1150 µg/mL (≈ 2730 µM); MCC [39]: > 400 µg/mL; MIC [40]: > 40 µg/mL; MIC [41]: > 40 µg/mL; MIC [42]: > 40 µg/mL; MIC [43]: > 40 µg/mL; MIC [44]: > 40 µg/mL; CC50 [45]: 10.1 µM
